Test results reported in US20210196720A1 (UROVANT SCIENCES GMBH, priority 2018, published 2021).
Where two headings read alike, the source gives them in different places.

Test: Single rising oral dose Phase 1 PK, healthy adults (young males unless stated)
Format: in vivo, human
Conditions: human, plasma, oral; for AUC(0-t): read-out: AUC0-24
Description: The steady state AUC geometric mean accumulation ratios were ˜2 in young male subjects and ˜2.8 in elderly subjects (male and female).
All subjects were healthy adults. […] Systemic exposures were greater than dose proportional up to 600 mg.
Although exposures were similar in middle-aged males when compared to young males, plasma concentrations were higher in elderly compared to middle-aged and young subjects. […] Furthermore, the steady state AUC geometric mean accumulation ratios were ˜2 in young males and ˜2.8 in the elderly.

[1] = both sexes, 50 mg, single 50 mg, elderly male and female
[2] = male, 10 mg, single 10 mg, Japanese
[3] = male, 50 mg, single 50 mg, Japanese, fasted
[4] = male, 50 mg, single 50 mg, fasted
[5] = male, 100 mg, single 100 mg, Japanese
[6] = male, 200 mg, single 200 mg, Japanese
[7] = male, 300 mg, single 300 mg, Japanese

Question: Which AUC(0-inf) [1] does the source give for `O=C(Nc1ccc(C[C@@H]2CC[C@H]([C@H](O)c3ccccc3)N2)cc1)[C@@H]1CCc2nccc(=O)n21` [Vibegron, (6S)-N-[4-[[(2S,5R)-5-[(R)-hydroxy(phenyl)methyl]pyrrolidin-2-yl]methyl]phenyl]-4-oxo-7,8-dihydro-6H-pyrrolo[1,2-a]pyrimidine-6-carboxamide] here?
Answer: 951 ± 300 ng·h/mL

Question: And the Cmax [1]?
Answer: 50.2 ± 23.6 ng/mL

Question: What about the AUC(0-t) [1] of the same compound?
Answer: 314 ± 119 ng·h/mL

Question: What about the half-life (both sexes, 50 mg, single 50 mg, elderly male and female, read-out: t1/2 (converted)) of the same compound?
Answer: 92 h

Question: What about the Cmax (male, 2 mg, single 2 mg) of the same compound?
Answer: 0.28 ± 0.02 ng/mL

Question: And the AUC(0-t) (male, 2 mg, single 2 mg)?
Answer: 0.8 ± 0.33 ng·h/mL

Question: What about the Cmax (male, 5 mg, single 5 mg) of the same compound?
Answer: 0.79 ± 0.3 ng/mL

Question: And the AUC(0-t) (male, 5 mg, single 5 mg)?
Answer: 8.31 ± 4.8 ng·h/mL

Question: What about the AUC(0-inf) (male, 10 mg, single 10 mg) of the same compound?
Answer: 70.7 ± 34.9 ng·h/mL

Question: And the Cmax (male, 10 mg, single 10 mg)?
Answer: 4.76 ± 4.58 ng/mL

Question: And the AUC(0-inf) [2]?
Answer: 98.7 ± 27.3 ng·h/mL

Question: And the Cmax [2]?
Answer: 3.34 ± 1.97 ng/mL

Question: What about the AUC(0-t) [2] of the same compound?
Answer: 31 ± 9.33 ng·h/mL

Question: What about the half-life (male, 10 mg, single 10 mg, Japanese, read-out: t1/2 (converted)) of the same compound?
Answer: 57.6 ± 39 h

Question: And the AUC(0-t) (male, 10 mg, single 10 mg)?
Answer: 30 ± 12.6 ng·h/mL

Question: And the half-life (male, 10 mg, single 10 mg, read-out: t1/2 (converted))?
Answer: 43.2 ± 13 h

Question: What about the AUC(0-inf) (male, 20 mg, single 20 mg) of the same compound?
Answer: 121 ± 48.9 ng·h/mL

Question: And the Cmax (male, 20 mg, single 20 mg)?
Answer: 5.25 ± 4.25 ng/mL

Question: What about the AUC(0-t) (male, 20 mg, single 20 mg) of the same compound?
Answer: 40 ± 21.1 ng·h/mL

Question: And the half-life (male, 20 mg, single 20 mg, read-out: t1/2 (converted))?
Answer: 64.2 ± 12.6 h

Question: And the AUC(0-inf) [3]?
Answer: 885 ± 241 ng·h/mL

Question: And the Cmax [3]?
Answer: 62.2 ± 20.4 ng/mL

Question: What about the AUC(0-t) [3] of the same compound?
Answer: 385 ± 136 ng·h/mL

Question: And the half-life (male, 50 mg, single 50 mg, Japanese, read-out: t1/2 (converted))?
Answer: 64.4 ± 8.7 h

Question: What about the AUC(0-inf) [4] of the same compound?
Answer: 551 ± 262 ng·h/mL

Question: And the Cmax [4]?
Answer: 31.7 ± 35 ng/mL

Question: What about the AUC(0-t) [4] of the same compound?
Answer: 219 ± 123 ng·h/mL

Question: And the half-life (male, 50 mg, single 50 mg, read-out: t1/2 (converted))?
Answer: 52 h

Question: And the AUC(0-inf) (male, 100 mg, single 100 mg)?
Answer: 1890 ± 698 ng·h/mL

Question: What about the Cmax (male, 100 mg, single 100 mg) of the same compound?
Answer: 142 ± 108 ng/mL

Question: What about the AUC(0-inf) [5] of the same compound?
Answer: 1770 ± 418 ng·h/mL

Question: What about the Cmax [5] of the same compound?
Answer: 190 ± 123 ng/mL

Question: And the AUC(0-t) [5]?
Answer: 920 ± 300 ng·h/mL

Question: What about the half-life (male, 100 mg, single 100 mg, Japanese, read-out: t1/2 (converted)) of the same compound?
Answer: 57.6 ± 12 h

Question: What about the AUC(0-t) (male, 100 mg, single 100 mg) of the same compound?
Answer: 845 ± 401 ng·h/mL

Question: And the half-life (male, 100 mg, single 100 mg, read-out: t1/2 (converted))?
Answer: 72.8 ± 10.8 h

Question: What about the AUC(0-inf) (male, 150 mg, single 150 mg) of the same compound?
Answer: 2270 ± 911 ng·h/mL

Question: What about the Cmax (male, 150 mg, single 150 mg) of the same compound?
Answer: 195 ± 185 ng/mL

Question: And the AUC(0-t) (male, 150 mg, single 150 mg)?
Answer: 1050 ± 551 ng·h/mL

Question: What about the half-life (male, 150 mg, single 150 mg, read-out: t1/2 (converted)) of the same compound?
Answer: 60.5 ± 10.5 h

Question: What about the AUC(0-inf) (male, 200 mg, single 200 mg) of the same compound?
Answer: 3630 ± 1110 ng·h/mL

Question: And the Cmax (male, 200 mg, single 200 mg)?
Answer: 274 ± 138 ng/mL

Question: What about the AUC(0-inf) [6] of the same compound?
Answer: 5200 ± 791 ng·h/mL

Question: What about the Cmax [6] of the same compound?
Answer: 516 ± 200 ng/mL

Question: What about the AUC(0-t) [6] of the same compound?
Answer: 3090 ± 569 ng·h/mL

Question: What about the half-life (male, 200 mg, single 200 mg, Japanese, read-out: t1/2 (converted)) of the same compound?
Answer: 58.4 ± 9 h

Question: What about the AUC(0-t) (male, 200 mg, single 200 mg) of the same compound?
Answer: 1740 ± 748 ng·h/mL

Question: What about the half-life (male, 200 mg, single 200 mg, read-out: t1/2 (converted)) of the same compound?
Answer: 75.3 ± 9.1 h

Question: What about the AUC(0-inf) (male, 300 mg, single 300 mg) of the same compound?
Answer: 7380 ± 1410 ng·h/mL

Question: And the Cmax (male, 300 mg, single 300 mg)?
Answer: 618 ± 231 ng/mL

Question: And the AUC(0-inf) [7]?
Answer: 6270 ± 1570 ng·h/mL

Question: And the Cmax [7]?
Answer: 733 ± 210 ng/mL

Question: What about the AUC(0-t) [7] of the same compound?
Answer: 4050 ± 1240 ng·h/mL

Question: And the half-life (male, 300 mg, single 300 mg, Japanese, read-out: t1/2 (converted))?
Answer: 59.7 ± 9.2 h

Question: What about the AUC(0-t) (male, 300 mg, single 300 mg) of the same compound?
Answer: 4430 ± 996 ng·h/mL

Question: What about the half-life (male, 300 mg, single 300 mg, read-out: t1/2 (converted)) of the same compound?
Answer: 63.4 ± 3 h

Question: And the AUC(0-inf) (male, 450 mg, single 450 mg)?
Answer: 9160 ± 1850 ng·h/mL

Question: And the Cmax (male, 450 mg, single 450 mg)?
Answer: 645 ± 165 ng/mL

Question: What about the AUC(0-t) (male, 450 mg, single 450 mg) of the same compound?
Answer: 5510 ± 1440 ng·h/mL

Question: And the half-life (male, 450 mg, single 450 mg, read-out: t1/2 (converted))?
Answer: 60 ± 9.4 h

Question: And the AUC(0-inf) (male, 600 mg, single 600 mg)?
Answer: 15500 ± 3450 ng·h/mL

Question: What about the Cmax (male, 600 mg, single 600 mg) of the same compound?
Answer: 1330 ± 529 ng/mL

Question: What about the AUC(0-t) (male, 600 mg, single 600 mg) of the same compound?
Answer: 10900 ± 2770 ng·h/mL

Question: And the half-life (male, 600 mg, single 600 mg, read-out: t1/2 (converted))?
Answer: 60.5 ± 5.2 h

Question: What about the half-life (male, 10 to 600 mg, healthy young males, read-out: terminal elimination t1/2) of the same compound?
Answer: 43 to 75 h

Question: What about the half-life (male, Japanese subjects, read-out: harmonic mean apparent terminal t1/2) of the same compound?
Answer: 58 to 71 h
